Reference: patent US20040171688A1, “Carboxylic acids and derivatives thereof and pharmaceutical compositions containing them” (priority 1997, published 2004)

Target: T1, HNF-4α (Rattus norvegicus, UniProt P22449)
T1 construct: GST-HNF-4α(LBD) fusion protein consisting of amino acids 96-455 of wild type HNF-4α fused to GST; fused on or other part: Glutathione-S-transferase (GST) at the N-terminus of the LBD construct; 6-histidine tag on the full-length construct
T1 sequence (P22449 105-464 isoform P22449-2 limits assumed): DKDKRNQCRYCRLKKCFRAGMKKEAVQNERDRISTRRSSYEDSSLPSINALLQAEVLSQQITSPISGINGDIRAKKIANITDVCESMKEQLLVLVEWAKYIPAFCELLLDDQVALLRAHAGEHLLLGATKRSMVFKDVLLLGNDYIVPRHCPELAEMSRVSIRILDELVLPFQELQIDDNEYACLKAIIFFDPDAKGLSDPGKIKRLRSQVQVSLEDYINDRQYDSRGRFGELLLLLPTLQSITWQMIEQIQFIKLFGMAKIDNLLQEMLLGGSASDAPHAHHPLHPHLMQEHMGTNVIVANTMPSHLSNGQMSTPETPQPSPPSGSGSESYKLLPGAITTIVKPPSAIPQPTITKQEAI
Test: Ligand binding assay with [3H]palmitoyl(16:0)-CoA on recombinant GST-HNF-4α(LBD) or His-HNF-4α
Conditions: competition with 8 nM [3H]palmitoyl(16:0)-CoA; GST-HNF-4α(LBD) or His-HNF-4α; read-out: EC50 (50% specific competition)
Experimental: a. […] The respective recombinant proteins are incubated to equilibrium with [^3H]palmitoyl(16:0)-CoA (0.05 μCi) and with increasing nonlabeled palmitoyl(16:0)-CoA as indicated.
b. […] The respective recombinant proteins are incubated with 8 nM of [^3H]palmitoyl(16:0)-CoA (60 Ci/mmol) and with increasing nonlabeled myristoyl(14:0)-CoA as indicated. Percent bound refers to radiolabeled [^3H]palmitoyl(16:0)-CoA in the bound fraction. […] Percent bound refers to radiolabeled [^3H]palmitoyl(16:0)-CoA in the bound fraction.
Rat HNF-4α1 cDNA(pLEN4S)^1 was subcloned into the glutathione-S-transferase (GST) encoding pGEX-2T plasmid (Pharmacia) and the resultant plasmid was cleaved with smaI and AccI and religated to yield the GST-HNF-4α(LBD) fusion plasmid. […] The full length HNF-4α1 cDNA cloned into 6His-pET11d vector was expressed in E.coli BL21 (DE3)plysS.
Recombinant GST-HNF-4α(LBD) (100 pmol) or His-HNF-4α (100 pmol) were incubated for 60 min at 22° C. with [^3H]palmitoyl(16:0)-CoA (American RadiolabeledChemicals) in 100 μl of 10 mM phosphate buffer (pH 7.4). Competitor ligands or solvent carrier were added as indicated. Free and HNF-4α bound ^3[H]palmitoyl(16:0)-CoA were separated by […] and bound ligand was quantified by liquid scintillation counting. Nonspecific binding of [^3H]palmitoyl(16:0)-CoA was determined by its binding to the GST moiety or to carbonic anhydrase as nonrelevant protein.
Binding was exemplified with either the ligand binding domain of HNF-4α fused to glutathione-s-transferase (GST-HNF-4α(LBD)) or the full length HNF-4α protein tagged by 6 histidines (His-HNF-4α).

EC50 | SMILES
2700 nM | CCCCCCCCCCCCCCCCCC(=O)SCCNC(=O)CCNC(=O)[C@H](O)C(C)(C)COP(=O)(O)OP(=O)(O)OC[C@H]1O[C@@H](n2cnc3c(N)ncnc32)[C@H](O)[C@@H]1OP(=O)(O)O [Stearoyl(18:0)-CoA]
1400 nM | CCCCCCCCCCCCCC(=O)SCCNC(=O)CCNC(=O)[C@H](O)C(C)(C)COP(=O)(O)OP(=O)(O)OC[C@H]1O[C@@H](n2cnc3c(N)ncnc32)[C@H](O)[C@@H]1OP(=O)(O)O [myristoyl(14:0)-CoA, reference compound]
